Key:
[1] = tested on: Salmonella strains (TA98, TA100, TA1537, and TA1535); settings: ± rat liver S9, 4 strains; 9 valid up to 50 μM
Method: (§1) Compounds were assessed for mutagenicity at the Eurofins Panlabs in 384-well plates using four Salmonella strains: TA98, to probe for frameshift mutation (with quercetin as control), TA100 and TA1535, to probe for base pair insertions/deletions (with streptozotocin as control), and TA1537, to probe for frameshift mutations (with aminacridine as control) as previously described.[78] Each compound was incubated at 37 °C for 96 h at four different concentrations (5, 10, 50, and 100 μM), with each concentration tested using 48 replicates, both with and without rat liver S9 metabolic activation. A concurrent bacterial cytotoxicity assay was run at 0.6, 1.2, 2.5, 5, 10, 25, 50, and 100 μM to rule out false negatives. Bacterial cytotoxicity was expressed as percent of control growth (OD650). Compounds with growth of less than 60% control were flagged and considered bacterial cytotoxic. […] Significances of the positive counts between the treatment and control were determined using a one-tailed Fisher’s exact test.

TA100 = assay: Background bacterial cytotoxicity assay; parameters: species or system Salmonella; key to Flag: A cytotoxicity value of less than 60% is flagged and the compound is considered as toxic (denoted as Cytox.); A hyphen (-) denotes no cytotoxicity at the respective concentration
Method: as §1

TA1535 = assay: Background bacterial cytotoxicity assay; parameters: species or system Salmonella; key to Flag: A cytotoxicity value of less than 60% is flagged and the compound is considered as toxic (denoted as Cytox.); A hyphen (-) denotes no cytotoxicity at the respective concentration
Method: as §1

TA1537 = assay: Background bacterial cytotoxicity assay; parameters: species or system Salmonella; key to Flag: A cytotoxicity value of less than 60% is flagged and the compound is considered as toxic (denoted as Cytox.); A hyphen (-) denotes no cytotoxicity at the respective concentration
Method: as §1

TA98 = assay: Background bacterial cytotoxicity assay; parameters: species or system Salmonella; key to Flag: A cytotoxicity value of less than 60% is flagged and the compound is considered as toxic (denoted as Cytox.); A hyphen (-) denotes no cytotoxicity at the respective concentration
Method: as §1

[2] = In vitro metabolite identification; format: in vitro ADME; settings: rat hepatocytes, 10 μM
AAK1 = target: T1, AAK1 (Homo sapiens, UniProt Q2M2I8); assay: KINOMEScan; format: binding; settings: AAK1, 1 µM; read-out: Percent Control
T1 construct: purchased Eurofins DiscoverX
From the text: (§2) Percent control was mapped onto the kinome tree using TREEspot.

[3] = target: T2, ABL1(F317I)-phosphorylated (Homo sapiens, UniProt P00519, F317I); assay: KINOMEScan; format: binding; settings: read-out: Percent Control
T2 construct: purchased Eurofins DiscoverX
From the text: as §2

[4] = target: T3, ABL1(H396P)-phosphorylated (Homo sapiens, UniProt P00519, H396P); assay: KINOMEScan; format: binding; settings: read-out: Percent Control
T3 construct: purchased Eurofins DiscoverX
From the text: as §2

ACVR1 = target: T4, ACVR1 (Homo sapiens, UniProt Q04771); assay: KINOMEScan; format: binding; settings: ACVR1, 1 µM; read-out: Percent Control
T4 construct: purchased Eurofins DiscoverX
From the text: as §2

BMX = target: T5, BMX (Homo sapiens, UniProt P51813); assay: KINOMEScan; format: binding; settings: read-out: Percent Control
T5 construct: purchased Eurofins DiscoverX (KINOMEscan)
From the text: as §2

BRK = target: T6, BRK (Homo sapiens, UniProt Q13882); assay: KINOMEScan; format: binding; settings: read-out: Percent Control
T6 construct: purchased Eurofins DiscoverX (KINOMEscan)
From the text: as §2

WEE2 = target: T7, WEE2 (Homo sapiens, UniProt P0C1S8); assay: KINOMEScan; format: binding; settings: WEE2, 1 µM; read-out: Percent Control
T7 construct: purchased Eurofins DiscoverX
From the text: as §2

WNK1 = target: T8, WNK1 (Homo sapiens, UniProt Q9H4A3); assay: KINOMEScan; format: binding; settings: WNK1, 1 µM; read-out: Percent Control
T8 construct: purchased Eurofins DiscoverX
T8 sequence (Q9H4A3 whole entry): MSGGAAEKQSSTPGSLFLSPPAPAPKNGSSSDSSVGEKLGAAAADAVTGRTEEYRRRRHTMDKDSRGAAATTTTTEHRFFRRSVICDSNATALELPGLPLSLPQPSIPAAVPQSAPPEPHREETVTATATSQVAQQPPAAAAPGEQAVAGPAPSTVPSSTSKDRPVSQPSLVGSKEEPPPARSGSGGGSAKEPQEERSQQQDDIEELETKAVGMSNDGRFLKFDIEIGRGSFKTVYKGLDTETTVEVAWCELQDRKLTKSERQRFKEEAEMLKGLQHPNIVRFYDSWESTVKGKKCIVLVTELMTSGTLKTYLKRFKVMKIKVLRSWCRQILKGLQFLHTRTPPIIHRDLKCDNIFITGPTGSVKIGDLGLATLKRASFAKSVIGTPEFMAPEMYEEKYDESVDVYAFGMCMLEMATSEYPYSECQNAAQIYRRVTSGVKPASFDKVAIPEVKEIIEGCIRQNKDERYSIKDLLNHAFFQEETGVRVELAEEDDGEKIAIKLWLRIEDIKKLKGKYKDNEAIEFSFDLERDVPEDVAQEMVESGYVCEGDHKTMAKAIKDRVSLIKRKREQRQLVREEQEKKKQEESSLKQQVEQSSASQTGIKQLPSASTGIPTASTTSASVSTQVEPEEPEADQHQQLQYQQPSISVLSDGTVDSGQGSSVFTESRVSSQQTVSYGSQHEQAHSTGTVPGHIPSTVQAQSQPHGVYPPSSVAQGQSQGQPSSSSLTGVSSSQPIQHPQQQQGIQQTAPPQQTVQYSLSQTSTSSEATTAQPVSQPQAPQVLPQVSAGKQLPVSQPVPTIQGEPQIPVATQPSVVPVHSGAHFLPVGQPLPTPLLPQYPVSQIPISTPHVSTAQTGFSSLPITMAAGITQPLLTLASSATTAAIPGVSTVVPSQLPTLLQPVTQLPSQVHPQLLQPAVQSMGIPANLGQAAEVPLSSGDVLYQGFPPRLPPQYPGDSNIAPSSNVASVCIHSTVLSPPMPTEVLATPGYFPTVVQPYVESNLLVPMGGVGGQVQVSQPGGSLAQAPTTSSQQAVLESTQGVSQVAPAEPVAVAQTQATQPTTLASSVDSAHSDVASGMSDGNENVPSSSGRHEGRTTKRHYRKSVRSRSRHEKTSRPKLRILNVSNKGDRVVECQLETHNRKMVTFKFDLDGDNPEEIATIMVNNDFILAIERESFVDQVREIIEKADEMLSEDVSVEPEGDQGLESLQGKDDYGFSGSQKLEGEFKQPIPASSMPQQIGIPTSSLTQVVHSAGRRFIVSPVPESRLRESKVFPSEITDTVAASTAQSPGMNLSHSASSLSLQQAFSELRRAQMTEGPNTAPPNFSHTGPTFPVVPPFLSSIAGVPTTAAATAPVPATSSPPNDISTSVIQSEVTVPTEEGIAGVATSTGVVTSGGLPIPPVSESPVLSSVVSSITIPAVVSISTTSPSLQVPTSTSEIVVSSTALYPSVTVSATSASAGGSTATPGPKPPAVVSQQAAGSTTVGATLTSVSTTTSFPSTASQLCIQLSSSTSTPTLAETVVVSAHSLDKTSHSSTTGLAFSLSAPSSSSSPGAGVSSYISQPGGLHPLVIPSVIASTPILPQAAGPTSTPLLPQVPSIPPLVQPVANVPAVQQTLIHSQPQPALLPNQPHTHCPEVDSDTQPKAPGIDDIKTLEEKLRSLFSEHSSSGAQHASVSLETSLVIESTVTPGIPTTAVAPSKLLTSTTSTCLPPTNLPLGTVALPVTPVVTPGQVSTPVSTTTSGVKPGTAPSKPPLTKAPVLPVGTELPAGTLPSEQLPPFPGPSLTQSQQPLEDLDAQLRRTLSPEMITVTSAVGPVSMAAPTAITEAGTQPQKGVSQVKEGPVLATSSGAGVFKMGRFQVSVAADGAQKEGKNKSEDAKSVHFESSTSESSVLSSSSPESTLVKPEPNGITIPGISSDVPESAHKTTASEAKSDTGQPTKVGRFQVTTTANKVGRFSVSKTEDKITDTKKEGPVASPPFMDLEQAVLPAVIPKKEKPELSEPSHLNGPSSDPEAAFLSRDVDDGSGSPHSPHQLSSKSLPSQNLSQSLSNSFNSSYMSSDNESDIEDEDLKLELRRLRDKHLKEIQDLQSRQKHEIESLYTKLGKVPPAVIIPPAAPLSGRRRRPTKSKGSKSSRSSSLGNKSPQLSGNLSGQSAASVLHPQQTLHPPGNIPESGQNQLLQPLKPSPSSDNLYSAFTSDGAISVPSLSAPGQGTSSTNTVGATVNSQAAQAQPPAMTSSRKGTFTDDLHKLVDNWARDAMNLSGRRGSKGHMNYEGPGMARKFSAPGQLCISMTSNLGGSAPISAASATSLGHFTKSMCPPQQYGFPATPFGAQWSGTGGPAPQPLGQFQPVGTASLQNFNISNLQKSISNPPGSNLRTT
From the text: as §2

T1 sequence (Q2M2I8 whole entry): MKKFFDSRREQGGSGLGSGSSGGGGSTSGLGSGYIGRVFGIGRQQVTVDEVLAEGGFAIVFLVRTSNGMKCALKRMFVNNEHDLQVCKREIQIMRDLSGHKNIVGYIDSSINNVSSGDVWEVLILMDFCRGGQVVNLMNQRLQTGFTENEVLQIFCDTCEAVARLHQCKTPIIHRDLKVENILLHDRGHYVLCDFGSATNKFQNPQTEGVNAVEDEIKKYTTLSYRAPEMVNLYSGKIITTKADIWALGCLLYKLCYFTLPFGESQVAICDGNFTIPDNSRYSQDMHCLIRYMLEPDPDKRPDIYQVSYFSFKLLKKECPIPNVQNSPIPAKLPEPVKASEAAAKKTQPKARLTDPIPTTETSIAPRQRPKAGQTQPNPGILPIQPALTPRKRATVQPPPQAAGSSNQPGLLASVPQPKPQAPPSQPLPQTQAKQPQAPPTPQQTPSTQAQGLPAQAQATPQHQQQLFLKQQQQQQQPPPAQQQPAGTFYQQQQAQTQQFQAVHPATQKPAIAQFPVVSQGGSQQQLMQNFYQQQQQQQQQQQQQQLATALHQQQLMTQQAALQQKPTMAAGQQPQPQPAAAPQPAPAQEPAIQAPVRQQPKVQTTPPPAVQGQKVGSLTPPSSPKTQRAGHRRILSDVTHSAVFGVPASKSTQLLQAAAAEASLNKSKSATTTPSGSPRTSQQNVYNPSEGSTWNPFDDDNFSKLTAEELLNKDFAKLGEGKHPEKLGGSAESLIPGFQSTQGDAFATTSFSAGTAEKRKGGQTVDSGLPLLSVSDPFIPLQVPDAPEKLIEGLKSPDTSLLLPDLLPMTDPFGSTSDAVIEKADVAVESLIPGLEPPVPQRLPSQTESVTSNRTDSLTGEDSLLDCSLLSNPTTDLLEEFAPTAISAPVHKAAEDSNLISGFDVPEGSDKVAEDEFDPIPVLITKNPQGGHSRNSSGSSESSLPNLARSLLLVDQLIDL
T6 sequence (Q13882 whole entry): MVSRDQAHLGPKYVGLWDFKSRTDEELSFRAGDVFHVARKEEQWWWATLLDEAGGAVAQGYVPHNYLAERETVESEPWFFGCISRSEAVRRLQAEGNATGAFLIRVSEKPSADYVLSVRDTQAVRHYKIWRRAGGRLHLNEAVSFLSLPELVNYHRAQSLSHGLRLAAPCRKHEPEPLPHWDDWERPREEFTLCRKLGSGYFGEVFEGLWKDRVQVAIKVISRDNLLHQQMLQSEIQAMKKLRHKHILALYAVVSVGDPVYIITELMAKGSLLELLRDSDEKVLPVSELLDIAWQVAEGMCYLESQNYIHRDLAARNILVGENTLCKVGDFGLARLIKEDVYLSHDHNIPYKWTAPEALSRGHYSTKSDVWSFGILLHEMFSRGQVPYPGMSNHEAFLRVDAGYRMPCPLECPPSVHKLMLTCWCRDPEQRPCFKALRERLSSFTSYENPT
T4 sequence (Q04771 21-509): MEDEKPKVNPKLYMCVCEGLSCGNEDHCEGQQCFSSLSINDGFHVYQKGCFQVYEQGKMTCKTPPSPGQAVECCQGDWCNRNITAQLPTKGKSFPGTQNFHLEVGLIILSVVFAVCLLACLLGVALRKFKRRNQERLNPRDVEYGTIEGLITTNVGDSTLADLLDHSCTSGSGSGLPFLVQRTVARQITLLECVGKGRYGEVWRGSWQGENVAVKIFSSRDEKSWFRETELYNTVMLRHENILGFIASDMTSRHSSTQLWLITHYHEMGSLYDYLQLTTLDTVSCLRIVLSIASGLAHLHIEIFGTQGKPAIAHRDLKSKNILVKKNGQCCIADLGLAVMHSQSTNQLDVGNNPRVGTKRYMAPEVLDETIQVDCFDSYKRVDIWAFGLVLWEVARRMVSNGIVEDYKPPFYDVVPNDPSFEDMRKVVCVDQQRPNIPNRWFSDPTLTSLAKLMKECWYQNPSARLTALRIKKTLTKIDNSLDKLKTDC
T7 sequence (P0C1S8 whole entry): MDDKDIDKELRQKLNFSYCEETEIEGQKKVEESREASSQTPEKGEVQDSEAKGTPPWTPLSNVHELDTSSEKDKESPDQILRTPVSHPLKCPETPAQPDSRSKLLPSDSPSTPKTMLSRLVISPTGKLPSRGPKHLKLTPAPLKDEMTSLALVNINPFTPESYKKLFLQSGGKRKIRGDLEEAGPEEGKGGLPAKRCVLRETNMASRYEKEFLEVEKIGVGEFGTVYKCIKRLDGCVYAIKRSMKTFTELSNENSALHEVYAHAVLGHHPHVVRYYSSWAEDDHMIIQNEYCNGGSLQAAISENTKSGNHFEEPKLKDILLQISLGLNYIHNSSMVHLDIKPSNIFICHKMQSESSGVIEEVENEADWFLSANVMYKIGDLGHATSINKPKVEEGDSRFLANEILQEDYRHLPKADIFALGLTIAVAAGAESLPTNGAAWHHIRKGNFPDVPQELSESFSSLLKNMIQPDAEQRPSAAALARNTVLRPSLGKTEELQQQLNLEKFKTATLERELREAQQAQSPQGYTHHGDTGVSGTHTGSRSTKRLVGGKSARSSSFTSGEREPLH

COc1cc2ncnc(Nc3cccc(Cl)c3F)c2cc1OCCON1CCOCC1 [Compound 7, N-(3-Chloro-2-fluorophenyl)-7-methoxy-6-(2-(morpholinooxy)ethoxy)quinazolin-4-amine]
AMES [1]: Negative

COc1cc2ncnc(Nc3cccc(Cl)c3F)c2cc1OCCON1CCN(C)CC1 [Compound 9, N-(3-Chloro-2-fluorophenyl)-7-methoxy-6-(2-((4-methylpiperazin-1-yl)oxy)ethoxy)quinazolin-4-amine]
Flag (TA100; TA100-S9, 1.0E-04 M): Cytox. (A cytotoxicity value of less than 60% is flagged and the compound is considered as toxic (denoted as Cytox.))
Mean % Control (n = 3) (TA100; TA100-S9, 1.0E-04 M): 34.0%
Flag (TA100; TA100-S9, 1.0E-05 M): -
Mean % Control (n = 3) (TA100; TA100-S9, 1.0E-05 M): 90.3%
Flag (TA100; TA100-S9, 1.2E-06 M): -
Mean % Control (n = 3) (TA100; TA100-S9, 1.2E-06 M): 91.2%
Flag (TA100; TA100-S9, 2.5E-05 M): -
Mean % Control (n = 3) (TA100; TA100-S9, 2.5E-05 M): 80.9%
Flag (TA100; TA100-S9, 2.5E-06 M): -
Mean % Control (n = 3) (TA100; TA100-S9, 2.5E-06 M): 89.5%
Flag (TA100; TA100-S9, 5.0E-05 M): -
Mean % Control (n = 3) (TA100; TA100-S9, 5.0E-05 M): 67.3%
Flag (TA100; TA100-S9, 5.0E-06 M): -
Mean % Control (n = 3) (TA100; TA100-S9, 5.0E-06 M): 93.2%
Flag (TA100; TA100-S9, 6.0E-07 M): -
Mean % Control (n = 3) (TA100; TA100-S9, 6.0E-07 M): 91.6%
Flag (TA1535; TA1535-S9, 1.0E-04 M): -
Mean % Control (n = 3) (TA1535; TA1535-S9, 1.0E-04 M): 78.4%
Flag (TA1535; TA1535-S9, 1.0E-05 M): -
Mean % Control (n = 3) (TA1535; TA1535-S9, 1.0E-05 M): 99.4%
Flag (TA1535; TA1535-S9, 1.2E-06 M): -
Mean % Control (n = 3) (TA1535; TA1535-S9, 1.2E-06 M): 120.4%
Flag (TA1535; TA1535-S9, 2.5E-05 M): -
Mean % Control (n = 3) (TA1535; TA1535-S9, 2.5E-05 M): 97.6%
Flag (TA1535; TA1535-S9, 2.5E-06 M): -
Mean % Control (n = 3) (TA1535; TA1535-S9, 2.5E-06 M): 101.2%
Flag (TA1535; TA1535-S9, 5.0E-05 M): -
Mean % Control (n = 3) (TA1535; TA1535-S9, 5.0E-05 M): 85.7%
Flag (TA1535; TA1535-S9, 5.0E-06 M): -
Mean % Control (n = 3) (TA1535; TA1535-S9, 5.0E-06 M): 108.1%
Flag (TA1535; TA1535-S9, 6.0E-07 M): -
Mean % Control (n = 3) (TA1535; TA1535-S9, 6.0E-07 M): 98.9%
Flag (TA1537; TA1537-S9, 1.0E-04 M): -
Mean % Control (n = 3) (TA1537; TA1537-S9, 1.0E-04 M): 60.3%
Flag (TA1537; TA1537-S9, 1.0E-05 M): -
Mean % Control (n = 3) (TA1537; TA1537-S9, 1.0E-05 M): 88.7%
Flag (TA1537; TA1537-S9, 1.2E-06 M): -
Mean % Control (n = 3) (TA1537; TA1537-S9, 1.2E-06 M): 98.4%
Flag (TA1537; TA1537-S9, 2.5E-05 M): -
Mean % Control (n = 3) (TA1537; TA1537-S9, 2.5E-05 M): 83.8%
Flag (TA1537; TA1537-S9, 2.5E-06 M): -
Mean % Control (n = 3) (TA1537; TA1537-S9, 2.5E-06 M): 90.5%
Flag (TA1537; TA1537-S9, 5.0E-05 M): -
Mean % Control (n = 3) (TA1537; TA1537-S9, 5.0E-05 M): 71.1%
Flag (TA1537; TA1537-S9, 5.0E-06 M): -
Mean % Control (n = 3) (TA1537; TA1537-S9, 5.0E-06 M): 98.8%
Flag (TA1537; TA1537-S9, 6.0E-07 M): -
Mean % Control (n = 3) (TA1537; TA1537-S9, 6.0E-07 M): 101.7%
Flag (TA98; TA98-S9, 1.0E-04 M): -
Mean % Control (n = 3) (TA98; TA98-S9, 1.0E-04 M): 84.2%
Flag (TA98; TA98-S9, 1.0E-05 M): -
Mean % Control (n = 3) (TA98; TA98-S9, 1.0E-05 M): 91.1%
Flag (TA98; TA98-S9, 1.2E-06 M): -
Mean % Control (n = 3) (TA98; TA98-S9, 1.2E-06 M): 92.3%
Flag (TA98; TA98-S9, 2.5E-05 M): -
Mean % Control (n = 3) (TA98; TA98-S9, 2.5E-05 M): 94.8%
Flag (TA98; TA98-S9, 2.5E-06 M): -
Mean % Control (n = 3) (TA98; TA98-S9, 2.5E-06 M): 91.7%
Flag (TA98; TA98-S9, 5.0E-05 M): -
Mean % Control (n = 3) (TA98; TA98-S9, 5.0E-05 M): 87.8%
Flag (TA98; TA98-S9, 5.0E-06 M): -
Mean % Control (n = 3) (TA98; TA98-S9, 5.0E-06 M): 95.7%
Flag (TA98; TA98-S9, 6.0E-07 M): -
Mean % Control (n = 3) (TA98; TA98-S9, 6.0E-07 M): 89.0%
share of parent/metabolite after incubation of 9 [2]: 1.11%
remaining binding at 1 µM (AAK1): 92%
remaining binding at 1 µM [3]: 48%
remaining binding at 1 µM [4]: 6.6%
remaining binding at 1 µM (ACVR1): 100%
remaining binding at 1 µM (BMX): 93%
remaining binding at 1 µM (BRK): 94%
remaining binding at 1 µM (WEE2): 100%
remaining binding at 1 µM (WNK1): 100%

Source: publication PMC10683025, “Discovery of a Hydroxylamine-Based Brain-Penetrant EGFR Inhibitor for Metastatic Non-Small-Cell Lung Cancer” (Journal of Medicinal Chemistry, 2023)
